In patent publication US11174230B2, “(E)-4-(4-acrylamidophenoxy)-N-methylpicolinamide conjugates as potential anticancer agents” (Council of Scientific & Industrial Research, priority 2016, dated 2021) one finds IC50 data, which are given here for 15 compounds.

Holding throughout (details): after 48 h of drug treatment, average of three individual experiments
In one test the test system is SKOV3. Nature of the test: MTT cytotoxicity assay, SKOV3 ovarian cancer cells. The class given is cell-based. The text has this: (§1) The (E)-4-(4-acrylamidophenoxy)-N-methylpicolinamide conjugates of general formulae 6a-6z and 7a-7aj have been evaluated for their cytotoxicity in selected human cancer cell lines i.e., lung (A549), prostate (DU-145), ovarian (SKOV3) and liver (HepG2) using MTT assay and the values obtained were compared to a standard drug sorafenib, with the concentration (treatment done at ranging from 10^−4 to 10^−8 M) of the compound produces to 50% inhibition of cell growth (IC50) as shown in Table 1. […] The IC50 values (in μM) for compounds 6b, 6c, 6d, 6e, 6g, 6l, 6m, 6o, 6p, 6q, 6t, 6z, 7b and 7g have been illustrated in Table 1.
For orientation: Tetrazolium dyes change colour on reduction, which living cells bring about.

In the next test the test system is HepG2. Nature of the test: MTT cytotoxicity assay, HepG2 liver cancer cells. The class given is cell-based, human.
Source text: as §1

Another test relates to DU145. Nature of the test: MTT cytotoxicity assay, DU145 prostate cancer cells. Type of test: cell-based.
Source text: as §1

The test system of the next test is A549. Nature of the test: MTT cytotoxicity assay, A549 lung cancer cells. Type of test: cell-based.
Source text: as §1

Turning to `CNC(=O)c1cc(Oc2ccc(NC(=O)/C=C/c3ccc(OC)cc3)cc2)ccn1` [Compound 6b, (E)-4-(4-(3-(4-methoxyphenyl)acrylamido)phenoxy)-N-methylpicolinamide], the IC50 in the test on SKOV3 (SK-OV-3, Human ovarian cancer) was 10.6 ± 0.32 µM; with HepG2 (Homo sapiens, HepG2, 48 h), 8 to 13 µM; with HepG2 it was 9.5 µM.

In the case of `CNC(=O)c1cc(Oc2ccc(NC(=O)/C=C/c3cccc(OC)c3OC)cc2)ccn1` [Compound 6c, (E)-4-(4-(3-(2,3-dimethoxyphenyl)acrylamido)phenoxy)-N-methylpicolinamide], the IC50 in the test on HepG2 (Homo sapiens, HepG2, 48 h) is 8 to 13 µM; in the test on HepG2, 12.4 ± 0.16 µM.

With `CNC(=O)c1cc(Oc2ccc(NC(=O)/C=C/c3cc(OC)c(OC)c(OC)c3)cc2)ccn1` [Compound 6d, (E)-N-methyl-4-(4-(3-(3,4,5-trimethoxyphenyl)acrylamido)phenoxy)picolinamide], the IC50 in the test with DU145 (DU-145, Human prostate cancer) was 21.1 ± 0.18 µM; in the test on HepG2 (Homo sapiens, HepG2, 48 h), 8 to 13 µM; in the test on HepG2, 10.2 µM.

`CNC(=O)c1cc(Oc2ccc(NC(=O)/C=C/c3cc(OC)ccc3OC)cc2)ccn1` [Compound 6e, (E)-4-(4-(3-(2,5-dimethoxyphenyl)acrylamido)phenoxy)-N-methylpicolinamide]: the IC50 was 29.5 ± 0.26 µM in the test with DU145 (DU-145, Human prostate cancer); 8 to 13 µM in the test with HepG2 (Homo sapiens, HepG2, 48 h); 10.1 µM in the test on HepG2.

Turning to `CNC(=O)c1cc(Oc2ccc(NC(=O)/C=C/c3cccc(O)c3)cc2)ccn1` [Compound 6g, (E)-4-(4-(3-(3-hydroxyphenyl)acrylamido)phenoxy)-N-methylpicolinamide], the IC50 in the test on SKOV3 (SK-OV-3, Human ovarian cancer) is 12 ± 0.11 µM; in the test with HepG2 (Homo sapiens, HepG2, 48 h) it was 8 to 13 µM; in the test with HepG2, 10.9 ± 0.22 µM.

`CNC(=O)c1cc(Oc2ccc(NC(=O)/C=C/c3ccc(Cl)cc3)cc2)ccn1` [Compound 6l, (E)-4-(4-(3-(4-chlorophenyl)acrylamido)phenoxy)-N-methylpicolinamide]: the IC50 with DU145 (DU-145, Human prostate cancer) was 17.9 ± 0.24 µM; with SKOV3 (SK-OV-3, Human ovarian cancer) it was 12.6 ± 0.28 µM; in the test with HepG2 (Homo sapiens, HepG2, 48 h), 8 to 13 µM; with HepG2, 9.6 µM.

For `CNC(=O)c1cc(Oc2ccc(NC(=O)/C=C/c3ccc(Cl)c(Cl)c3)cc2)ccn1` [Compound 6m, (E)-4-(4-(3-(3,4-dichlorophenyl)acrylamido)phenoxy)-N-methylpicolinamide], the IC50 with A549 (A549, Human lung cancer) is 9.5 ± 0.22 µM; with DU145 (DU-145, Human prostate cancer) it was 23.3 ± 0.28 µM; with HepG2 (Homo sapiens, HepG2, 48 h) it was 8 to 13 µM; in the test with HepG2, 12.4 ± 0.32 µM.

Take `CNC(=O)c1cc(Oc2ccc(NC(=O)/C=C/c3ccc(F)cc3)cc2)ccn1` [Compound 6o, (E)-4-(4-(3-(4-fluorophenyl)acrylamido)phenoxy)-N-methylpicolinamide]: the IC50 in the test with HepG2 (Homo sapiens, HepG2, 48 h) is 8 to 13 µM; in the test with HepG2, 12.5 ± 0.18 µM.

As for `CNC(=O)c1cc(Oc2ccc(NC(=O)/C=C/c3ccc(F)cc3F)cc2)ccn1` [Compound 6p, (E)-4-(4-(3-(2,4-difluorophenyl)acrylamido)phenoxy)-N-methylpicolinamide], the IC50 is 49.4 ± 0.54 µM in the test with A549 (A549, Human lung cancer); 8 to 13 µM in the test with HepG2 (Homo sapiens, HepG2, 48 h); 13.1 ± 0.26 µM with HepG2.

For the compound `CNC(=O)c1cc(Oc2ccc(NC(=O)/C=C/c3ccc(F)c(F)c3)cc2)ccn1` [Compound 6q, (E)-4-(4-(3-(3,4-difluorophenyl)acrylamido)phenoxy)-N-methylpicolinamide], the IC50 in the test on SKOV3 (SK-OV-3, Human ovarian cancer) was 11.2 ± 0.26 µM; in the test on HepG2 (Homo sapiens, HepG2, 48 h) it was 8 to 13 µM; in the test on HepG2 it was 11.1 ± 0.14 µM.

As for `CNC(=O)c1cc(Oc2ccc(NC(=O)/C=C/c3ccc(C(F)(F)F)cc3)cc2)ccn1` [Compound 6t, (E)-N-methyl-4-(4-(3-(4-(trifluoromethyl)phenyl)acrylamido)phenoxy)picolinamide], the IC50 in the test with A549 (A549, Human lung cancer) is 22.3 ± 0.22 µM; with HepG2 (Homo sapiens, HepG2, 48 h), 8 to 13 µM; with HepG2 it was 8.2 µM.

In the case of `CNC(=O)c1cc(Oc2ccc(NC(=O)/C=C/c3ccc([N+](=O)[O-])cc3)cc2)ccn1` [Compound 6z, (E)-N-methyl-4-(4-(3-(4-nitrophenyl)acrylamido)phenoxy)picolinamide], the IC50 in the test on A549 (A549, Human lung cancer) is 30.1 ± 0.28 µM; in the test on DU145 (DU-145, Human prostate cancer) it was 28.7 ± 0.36 µM; in the test on HepG2 (Homo sapiens, HepG2, 48 h), 8 to 13 µM; in the test on HepG2 it was 12.2 ± 0.22 µM.

`CNC(=O)c1cc(Oc2ccc(NC(=O)/C=C/c3ccco3)cc2)ccn1` [Compound 7b, (E)-4-(4-(3-(furan-2-yl)acrylamido)phenoxy)-N-methylpicolinamide]: the IC50 in the test on HepG2 (Homo sapiens, HepG2, 48 h) is 8 to 13 µM; with HepG2, 10.2 µM.

As to `CNC(=O)c1cc(Oc2ccc(NC(=O)/C=C/c3cccs3)cc2)ccn1` [Compound 7g, (E)-N-methyl-4-(4-(3-(thiophen-2-yl)acrylamido)phenoxy)picolinamide], the IC50 with A549 (A549, Human lung cancer) was 24.1 ± 0.44 µM; in the test on DU145 (DU-145, Human prostate cancer), 12.2 ± 0.26 µM; with HepG2 (Homo sapiens, HepG2, 48 h) it was 8 to 13 µM; with HepG2, 13.2 ± 0.11 µM.

In the case of `CNC(=O)c1cc(Oc2ccc(NC(=O)Nc3ccc(Cl)c(C(F)(F)F)c3)cc2)ccn1` [Sorafenib, reference compound], the IC50 in the test on A549 (Human lung cancer) was found to be 6.1 ± 0.18 µM; in the test on DU145 (Human prostate cancer) it was 6.5 ± 0.22 µM; with SKOV3 (Human ovarian cancer) it was 9.5 ± 0.12 µM; in the test on HepG2, 14.5 µM.

One may read the IC50 as the concentration at which inhibition is half-maximal. A higher IC50 goes with weaker potency.
